Assays:
Format in all cases: in vivo
Eubacteriaceae = experiment: 16S rRNA clone analysis of digital dermatitis lesion before and after treatment
Text: (§1) Samples were collected from two cows afflicted with digital dermatitis. First, a digital dermatitis lesion was collected from the affected area by biopsy prior to treatment. After collecting the lesion, a powdered composition containing allyl isothiocyanate (trade name: “Wasaouro Powder”, Mitsubishi-Kagaku Foods Corp.) was applied to the affected area. After confirming improvement of clinical symptoms seven days later, a sample was again collected by biopsy. The stage of digital dermatitis at the time of sampling was assessed macroscopically. In order to investigate the predominant microbial species in the lesion before and after treatment, DNA was extracted from four specimens of digital dermatitis lesion materials of the two cows before and after treatment, low cycle number PCR (25 cycles or less) was carried out using universal primers to 16S rRNA gene, and the amplified gene fragment was cloned in an Escherichia coli vector. 192 clones were randomly harvested for each specimen to determine the base sequence of the amplified 16S rRNA gene. Among these, a homology analysis was performed by a BLAST search using clones from which data was obtained for base sequences in excess of 1450 bp, followed by determination of microbial species.

Psychrobacter = experiment: as above; details: Table 3 cow
Text: as §1

Treponema [1] = experiment: as above
Text: as §1

Anaerovorax odorimutans = experiment: as above; details: Table 3 cow
Text: as §1

Acholeplasma vituli = experiment: as above; details: Table 3 cow
Text: as §1

Clostridiaceae = experiment: as above; details: Table 3 cow
Text: as §1

[2] = system: dairy cows afflicted with hairy hoof wart attack; experiment: Effect of patch on hairy hoof wart attack of dairy cows (Example 2); details: assessed one week later
Text: 3 g of a powdered composition of allyl isothiocyanate (trade name: “Wasaouro Powder”, Mitsubishi-Kagaku Foods Corp.) were placed on a piece of absorbent cotton and pressed against the affected area of dairy cows (5) afflicted with hairy hoof wart attack followed by wrapping with an elastic bandage to administer the allyl isothiocyanate to the affected area in the form of a patch and assessing the effect one week later. […] Hairy hoof wart attack is a hoof and leg disease having lesions that are more serious and cover a broader area in comparison with digital dermatitis, and when considering that an effective preventive and/or treatment method has currently yet to be found, this effect of allyl isothiocyanate can be said to be groundbreaking.

Treponema [3] = experiment: Microbial score of affected area with and without hoof trimming (Example 4); details: observed after 2, 4 and 6 days
Text: (§2) Allyl isothiocyanate (trade name: “Wasaouro Powder”, Mitsubishi-Kagaku Foods Corp.) was applied to the affected areas of dairy cows afflicted with digital dermatitis, and microbial scores and changes in pain at the lesions were observed after 2, 4 and 6 days.
(§3) Comparisons were made under the following conditions A to D in order to confirm differences in effects attributable to the presence or absence of hoof trimming.
(§4) A: Allyl isothiocyanate applied to affected area after hoof trimming
(§5) B: Allyl isothiocyanate applied to affected area without performing hoof trimming
(§6) C: Allyl isothiocyanate applied after hoof trimming and cleaning the affected area with Oxydol disinfectant
(§7) D: Affected area cleaned with Oxydol disinfectant after hoof trimming (without applying allyl isothiocyanate)
Microbial scores of the affected areas were obtained by scoring the number of microorganisms from a stamped specimen of the heel bulb in the manner indicated below.
3: Treponema covered the entire field of view
2: Large number of Treponema confirmed in the field of view
1: Treponema only occasionally confirmed
0: Treponema unable to be confirmed

[4] = system: dairy cows afflicted with digital dermatitis; experiment: Effect of patch on digital dermatitis of dairy cows (Example 1); details: patch on affected area, assessed two days later
Text: 3 g of a powdered composition of allyl isothiocyanate (trade name: “Wasaouro Powder”, Mitsubishi-Kagaku Foods Corp.) were placed on a piece of absorbent cotton and pressed against the affected area of dairy cows afflicted with digital dermatitis followed by wrapping with an elastic bandage to administer the allyl isothiocyanate to the affected area in the form of a patch and assessing the effect two days later. In addition, the effect of respectively administering sodium alginate and slaked lime using the same method was also assessed two days later.

[5] = system: dairy cows afflicted with digital dermatitis; experiment: Pain at affected area by pressure gauge, with and without hoof trimming (Example 4); details: applied after hoof trimming; observed after 2, 4 and 6 days
Text: as §2, §3, §4, §5, §6, §7
Changes in pain were evaluated based on the level of pressure at which pain was felt by tightly squeezing the affected area with a pressure gauge. Larger values indicate lower levels of pain.

[6] = Table 2 cow, after treatment (n = 171), seven days
[7] = Table 2 cow, before treatment (n = 181)
[8] = Table 3 cow, after treatment (n = 178), seven days
[9] = Table 3 cow, before treatment (n = 180)
[10] = after treatment (n = 178), seven days
[11] = 3 g powder patch, five dairy cows

Structure (SMILES): C=CCN=C=S [Allyl isothiocyanate, allyl isothiocyanate]
- percentage of clones detected: Eubacteriaceae (Eubacteriaceae; [6]): 0.6%
- percentage of clones detected: Eubacteriaceae (Eubacteriaceae; [7]): 5.5%
- percentage of clones detected: Eubacteriaceae (Eubacteriaceae; [8]): 0.6%
- percentage of clones detected: Eubacteriaceae (Eubacteriaceae; [9]): 10.6%
- percentage of clones detected: Psychrobacter (Psychrobacter; [10]): 0%
- percentage of clones detected: Psychrobacter (Psychrobacter; before treatment (n = 180)): 2.2%
- percentage of clones detected: Treponema (Treponema [1]; [6]): 7.0%
- percentage of clones detected: Treponema (Treponema [1]; [7]): 79.6%
- percentage of clones detected: Treponema (Treponema [1]; [8]): 0%
- percentage of clones detected: Treponema (Treponema [1]; [9]): 37.8%
- percentage of clones detected: Anaerovorax odorimutans (Anaerovorax odorimutans; [10]): 0%
- percentage of clones detected: Anaerovorax odorimutans (Anaerovorax odorimutans; before treatment (n = 180)): 10.0%
- percentage of clones detected: Acholeplasma vituli (Acholeplasma vituli; [10]): 0%
- percentage of clones detected: Acholeplasma vituli (Acholeplasma vituli; before treatment (n = 180)): 3.9%
- percentage of clones detected: Clostridiaceae (Clostridiaceae; [10]): 5.6%
- percentage of clones detected: Clostridiaceae (Clostridiaceae; before treatment (n = 180)): 26.7%
- cows in which the affected area demonstrated improvement [2, 11]: one
- cows in which the affected area healed [2, 11]: two
- cows in which the affected area was unchanged [2, 11]: one
- cows with effects categorized as improved or better ([2]; of the five dairy cows): four
- number of microorganisms at the lesion (Treponema [3]; administered after hoof trimming): decrease
- number of microorganisms at the lesion (Treponema [3]; applied after cleaning the affected area with Oxydol disinfectant): decrease further
- Degree of effect: Effective (number of digits) [4]: 1 digits
- Degree of effect: Ineffective (number of digits) [4]: 0 digits
- Degree of effect: Slightly effective (number of digits) [4]: 0 digits
- Degree of effect: Very effective (number of digits) [4]: 2 digits
- percentage of digits for which the degree of the effect was effective or better [4]: 100%
- pain [5]: decrease

Structure (SMILES): [Ca+2].[OH-].[OH-] [Slaked lime, slaked lime, reference compound]
- Degree of effect: Effective (number of digits) [4]: 2 digits
- Degree of effect: Ineffective (number of digits) [4]: 0 digits
- Degree of effect: Slightly effective (number of digits) [4]: 5 digits
- Degree of effect: Very effective (number of digits) [4]: 0 digits
- percentage of digits for which the degree of the effect was effective or better [4]: 29%

Source: patent US9603827B2, “Method for preventing and/or treating hairy wart disease” (Mitsubishi-Kagaku Foods Corporation, priority 2014, dated 2017)
